Tested on: CTLA-4/CD80 interaction
Assay: In vitro CTLA-4/CD80 HTRF binding assay with triple-mutant anti-CTLA-4 scFv (Rip3)
Details: no cathepsin B; up to 75 μM JK43 and prodrug; FIG. 2
Procedure: In addition to the above, an in vitro CTLA-4/CD80 HTRF (homogeneous time resolved fluorescence) binding assay was performed with cathepsin B activatable prodrug. Specifically, the HTRF assay was used to assess the ability of antibodies to block the CTLA-4/CD80 interaction using a CTLA-4/CD80 binding assay kit (cat. no. 64CTLA80PEG; Cisbio (Codolet, France)). […]
To the above, 4 μL of Tag1-CD80 protein and 4 μL of Tag2-CTLA-4 were added into a black 384-well low volume plate and then incubated at 37° C. for 10 minutes. […] These were used to measure the fluorescence energy transfer between donor Anti-Tag1 Eu Cryptate and acceptor Anti-Tag d2 reagent. Data was collected at different time points (1, 3, 8, 12 and 24 hours) and the FRET signals were measured on a envision multimode plate reader (PerkinElmer, Shelton, CT) using 340 nm as the excitation wavelength, a 620 nm filter for the Eu donor fluorescence detection, and a 665 nm filter for the acceptor fluorescence detection. HTRF signals were calculated as a ratio as follows: (intensity of 665 nm)/(intensity of 620 nm)×10,000, which was plotted against the WT/triple mutant antibody (5GSWT and 5GS 3′M (Rip3)) concentration to derive the EC50.

With c1ccc(COc2ccc3cn[nH]c3c2)cc1 [Stitch3, 6-phenylmethoxy-1H-indazole] the “rescue of the activity of the triple mutant scFv variant (Rip3)” value was “rescues the activity”.

Source: US20240156974A1, “COMPOSITIONS AND METHODS FOR MODULATION OF ANTIBODY ACTIVITY” (Institute For Cancer Research D/B/A Tha Research Institute …, priority 2021, published 2024)
